The source made the active and inactive calls. The rule behind the calls is not given here.
Tests used:
A-375 [1] = assay: Antiproliferative activity against human A375 cells after 72 hrs by MTT assay; format: functional, cell-based; details: A-375, 72 h, read-out: IC50
M14 = assay: Antiproliferative activity against human M14 cells after 72 hrs by MTT assay; format: functional, cell-based; details: M14, 72 h
WM164 = assay: Antiproliferative activity against human WM164 cells after 72 hrs by MTT assay; format: functional, cell-based; details: WM164, 72 h
Tubulin (Bos taurus) = Tubulin (Bos taurus) (UniProt Q6B856+Q862L2+Q862F3); assay: Inhibition of bovine brain tubulin polymerization at 10 uM measured at time interval of 1 mins for 20 mins by spectrophotometric analysis
Tubulin (Homo sapiens) [2] = target: T1, Tubulin (Homo sapiens) (UniProt P68371+Q9H4B7+P0DPH7+P68366+Q13509+Q71U36+P04350+Q3ZCM7+P07437+P68363+Q9BQE3+Q6PEY2+Q13885+Q9BVA1+Q9BUF5); assay: Disruption of microtubule network in human WM164 cells assessed as microtubule fragmentation at 100 nM after 18 hrs by DAPI staining based fluorescence confocal microscopic method; format: cell-based
Tubulin (Homo sapiens) [3] = target: T1, Tubulin (Homo sapiens); assay: Disruption of microtubule network in human WM164 cells assessed as microtubule disassembly at 100 nM after 18 hrs by DAPI staining based fluorescence confocal microscopic method; format: cell-based
A-375 [4] = assay: Inhibition of anchorage-dependent colony formation in human A375 cells assessed as decrease in colony number at 5 nM after 12 days by crystal violet-staining based assay relative to control; format: functional; details: A-375, 288 h
A-375 [5] = assay: Antimigratory activity in human A375 cells assessed as wound closure at 5 nM after 22 hrs by scratch migration assay (reference value: 60.7 +/- 3.5%); format: functional
A-375 [6] = assay: Antimigratory activity in human A375 cells assessed as wound closure at 25 nM after 22 hrs by scratch migration assay (reference value: 60.7 +/- 3.5%); format: functional
RPMI-7951 = assay: Antimigratory activity in human RPMI7951 cells assessed as wound closure at 25 nM after 18 hrs by scratch migration assay (reference value: 71.8 +/- 1.8%); format: functional
[7] = Half-life in CD-1 mouse liver microsomes in presence of NADPH regenerating system measured up to 4 hrs by UPLC-MS analysis; format: ADME, Microsome
[8] = Intrinsic clearance in CD-1 mouse liver microsomes in presence of NADPH regenerating system measured up to 4 hrs by UPLC-MS analysis; format: ADME, Microsome; details: read-out: CLH
[9] = Half-life in rat liver microsomes pre-incubated for 15 mins followed by addition of NADPH regenerating system by LC-MS analysis; format: ADME, Microsome
[10] = Intrinsic clearance in rat liver microsomes pre-incubated for 15 mins followed by addition of NADPH regenerating system by LC-MS analysis; format: ADME, Microsome; details: read-out: CLH
[11] = Half-life in human liver microsomes in presence of NADPH regenerating system; format: ADME, Microsome
[12] = Intrinsic clearance in human liver microsomes in presence of NADPH regenerating system; format: ADME, Microsome; details: read-out: CLH
[13] = Toxicity in ip dosed ICR mouse assessed as maximum tolerated dose; format: organism-based; details: in vivo
A-375 [14] = assay: Antitumor activity against human A375 cells xenografted in nude mouse assessed as tumor growth inhibition at 15 mg/kg, ip administered once daily for 14 days and measured after 20 days by caliper method relative to control; format: functional; details: A-375, ip, read-out: TGI
A-375 [15] = assay: Antitumor activity against human A375 cells xenografted in nude mouse assessed as tumor growth inhibition at 30 mg/kg, ip administered once daily for 14 days and measured after 20 days by caliper method relative to control; format: functional; details: A-375, ip, read-out: TGI
A-375 [16] = assay: Antitumor activity against human A375 cells xenografted in nude mouse assessed as reduction in tumor weight at 15 mg/kg, ip administered once daily for 14 days relative to control; format: functional; set-up: scale not given: the % may be the effect or the level left
A-375 [17] = assay: Antitumor activity against human A375 cells xenografted in nude mouse assessed as reduction in tumor weight at 30 mg/kg, ip administered once daily for 14 days relative to control; format: functional; set-up: scale not given: the % may be the effect or the level left
B16-F10 = assay: Antimetastatic activity against mouse B16F10 cells xenografted in C57BL/6 mouse assessed as reduction in lung metastasis at 30 mg/kg, ip administered once daily for 2 weeks with 2 days rest after day 5 and measured after 15 days relative to control; format: functional; set-up: scale not given: the % may be the effect or the level left
[18] = Acute toxicity in nude mouse xenografted with human A375 cells assessed as injury to lung at 30 mg/kg, ip administered once daily for 14 days by hematoxylin and eosin staining-based assay; format: organism-based; details: in vivo, 336 h
[19] = Acute toxicity in nude mouse xenografted with human A375 cells assessed as injury to lung at 15 mg/kg, ip administered once daily for 14 days by hematoxylin and eosin staining-based assay; format: organism-based; details: in vivo, 336 h
[20] = Acute toxicity in nude mouse xenografted with human A375 cells assessed as injury to spleen at 15 mg/kg, ip administered once daily for 14 days by hematoxylin and eosin staining-based assay; format: organism-based; details: in vivo, 336 h
[21] = Acute toxicity in nude mouse xenografted with human A375 cells assessed as injury to liver at 15 mg/kg, ip administered once daily for 14 days by hematoxylin and eosin staining-based assay; format: organism-based; details: in vivo, 336 h
[22] = Acute toxicity in nude mouse xenografted with human A375 cells assessed as injury to kidney at 15 mg/kg, ip administered once daily for 14 days by hematoxylin and eosin staining-based assay; format: organism-based; details: in vivo, 336 h
[23] = Acute toxicity in nude mouse xenografted with human A375 cells assessed as injury to heart at 15 mg/kg, ip administered once daily for 14 days by hematoxylin and eosin staining-based assay; format: organism-based; details: in vivo, 336 h
[24] = Acute toxicity in nude mouse xenografted with human A375 cells assessed as injury to spleen at 30 mg/kg, ip administered once daily for 14 days by hematoxylin and eosin staining-based assay; format: organism-based; details: in vivo, 336 h
[25] = Acute toxicity in nude mouse xenografted with human A375 cells assessed as injury to liver at 30 mg/kg, ip administered once daily for 14 days by hematoxylin and eosin staining-based assay; format: organism-based; details: in vivo, 336 h
[26] = Acute toxicity in nude mouse xenografted with human A375 cells assessed as injury to kidney at 30 mg/kg, ip administered once daily for 14 days by hematoxylin and eosin staining-based assay; format: organism-based; details: in vivo, 336 h
[27] = Acute toxicity in nude mouse xenografted with human A375 cells assessed as injury to heart at 30 mg/kg, ip administered once daily for 14 days by hematoxylin and eosin staining-based assay; format: organism-based; details: in vivo, 336 h
[28] = Acute toxicity in C57BL/6 mouse xenografted with mouse B16F10 cells assessed as injury to lung at 30 mg/kg, ip administered once daily for 2 weeks with 2 days rest after day 5 and measured after 15 days by hematoxylin and eosin staining-based assay; format: organism-based; details: in vivo, 360 h
[29] = Acute toxicity in C57BL/6 mouse xenografted with mouse B16F10 cells assessed as injury to spleen at 30 mg/kg, ip administered once daily for 2 weeks with 2 days rest after day 5 and measured after 15 days by hematoxylin and eosin staining-based assay; format: organism-based; details: in vivo, 360 h
[30] = Acute toxicity in C57BL/6 mouse xenografted with mouse B16F10 cells assessed as injury to liver at 30 mg/kg, ip administered once daily for 2 weeks with 2 days rest after day 5 and measured after 15 days by hematoxylin and eosin staining-based assay; format: organism-based; details: in vivo, 360 h
[31] = Acute toxicity in C57BL/6 mouse xenografted with mouse B16F10 cells assessed as injury to kidney at 30 mg/kg, ip administered once daily for 2 weeks with 2 days rest after day 5 and measured after 15 days by hematoxylin and eosin staining-based assay; format: organism-based; details: in vivo, 360 h
[32] = Acute toxicity in C57BL/6 mouse xenografted with mouse B16F10 cells assessed as injury to heart at 30 mg/kg, ip administered once daily for 2 weeks with 2 days rest after day 5 and measured after 15 days by hematoxylin and eosin staining-based assay; format: organism-based; details: in vivo, 360 h
[33] = target: Sodium-dependent noradrenaline transporter (Homo sapiens, UniProt P23975); assay: Antagonist activity at human norepinephrine transporter at 1 uM; format: ADME
Chain of Sodium-dependent noradrenaline transporter (P23975 whole entry): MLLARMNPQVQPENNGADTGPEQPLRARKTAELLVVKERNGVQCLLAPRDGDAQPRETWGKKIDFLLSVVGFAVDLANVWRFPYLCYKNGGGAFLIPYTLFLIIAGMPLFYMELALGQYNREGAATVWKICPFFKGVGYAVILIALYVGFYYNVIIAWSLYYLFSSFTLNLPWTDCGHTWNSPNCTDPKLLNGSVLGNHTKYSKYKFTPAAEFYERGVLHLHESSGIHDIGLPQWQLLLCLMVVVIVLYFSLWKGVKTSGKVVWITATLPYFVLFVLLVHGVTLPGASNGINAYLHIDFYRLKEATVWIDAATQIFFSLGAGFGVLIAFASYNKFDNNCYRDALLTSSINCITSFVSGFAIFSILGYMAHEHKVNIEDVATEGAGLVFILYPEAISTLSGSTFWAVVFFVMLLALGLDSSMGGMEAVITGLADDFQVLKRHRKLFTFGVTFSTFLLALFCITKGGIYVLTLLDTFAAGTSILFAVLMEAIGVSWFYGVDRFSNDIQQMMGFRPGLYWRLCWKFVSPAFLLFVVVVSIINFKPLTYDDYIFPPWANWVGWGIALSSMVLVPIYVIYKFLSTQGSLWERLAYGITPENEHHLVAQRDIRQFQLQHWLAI

[34] = target: 5-hydroxytryptamine receptor 2B (Homo sapiens, UniProt P41595); assay: Antagonist activity at human HTR2B at 1 uM
Chain of 5-hydroxytryptamine receptor 2B (P41595 whole entry): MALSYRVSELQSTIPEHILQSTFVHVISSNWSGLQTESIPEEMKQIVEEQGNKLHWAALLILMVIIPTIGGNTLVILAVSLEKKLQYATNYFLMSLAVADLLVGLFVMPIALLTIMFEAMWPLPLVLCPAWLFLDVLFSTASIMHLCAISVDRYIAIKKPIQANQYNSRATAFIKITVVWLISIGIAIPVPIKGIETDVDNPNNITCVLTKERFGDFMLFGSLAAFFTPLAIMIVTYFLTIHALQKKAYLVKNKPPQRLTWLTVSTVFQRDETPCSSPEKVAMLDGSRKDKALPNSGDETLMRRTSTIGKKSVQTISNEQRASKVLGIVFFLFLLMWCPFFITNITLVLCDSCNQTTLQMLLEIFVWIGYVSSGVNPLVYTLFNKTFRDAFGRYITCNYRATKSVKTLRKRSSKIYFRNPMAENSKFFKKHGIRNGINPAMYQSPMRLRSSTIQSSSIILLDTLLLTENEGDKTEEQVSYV

PC-3 = assay: Antiproliferative activity against human PC3 cells; format: functional, cell-based
[35] = Antiproliferative activity against human PC3-TxR cells; format: functional, cell-based
[36] = Resistance index, ratio of IC50 for human PC3-TxR cells to IC50 for human PC3 cells; format: functional
DU-145 = assay: Antiproliferative activity against human DU145 cells; format: functional, cell-based
[37] = Antiproliferative activity against human DU145-TxR cells; format: functional, cell-based
[38] = Resistance index, ratio of IC50 for human DU145-TxR cells to IC50 for human DU145 cells; format: functional
[39] = Antitumor activity against human PC3-TxR cells xenografted in nude mouse assessed as tumor growth inhibition at 30 mg/kg administered every other day for 3 weeks relative to control; format: functional; details: 504 h, read-out: TGI
[40] = Antitumor activity against human PC3-TxR cells xenografted in nude mouse assessed as reduction in tumor weight at 30 mg/kg administered every other day for 3 weeks relative to control; format: functional; set-up: scale not given: the % may be the effect or the level left
[41] = Toxicity in nude mouse xenografted with human PC-3/TxR cells assessed as effect on body weight at 30 mg/kg administered every other day for 3 weeks; details: in vivo, 504 h

COc1cc(C(=O)c2c[nH]c(-c3cccc4[nH]ccc34)n2)cc(OC)c1OC
IC50 (A-375 [1]): 3.6 nM
IC50 (M14): 3.7 nM
IC50 (WM164): 1.6 nM
inhibition (Tubulin (Bos taurus)): Active
Activity (Tubulin (Homo sapiens) [2]): Active
Activity (Tubulin (Homo sapiens) [3]): Active
inhibition at 0.005 µM (A-375 [4]): 35.6%
Activity (A-375 [5]): 38.5%
Activity (A-375 [6]): 38.5%
Activity (RPMI-7951): 35%
half-life [7]: 302 min
CLint scaled [8]: 11.3 mL/min/kg
half-life [9]: 316 min
CLint scaled [10]: 8.9 mL/min/kg
half-life [11]: 403 min
CLint scaled [12]: 3.1 mL/min/kg
MTD [13]: ≤ 65 mg/kg
inhibition in vivo at 15 mg/kg (A-375 [14]): 82.3%
inhibition in vivo at 30 mg/kg (A-375 [15]): 90.6%
Activity (A-375 [16]): 67.3%
Activity (A-375 [17]): 70.1%
Activity (B16-F10): 80.9%
Activity [18]: Non-Toxic
Activity [19]: Non-Toxic
Activity [20]: Non-Toxic
Activity [21]: Non-Toxic
Activity [22]: Non-Toxic
Activity [23]: Non-Toxic
Activity [24]: Non-Toxic
Activity [25]: Non-Toxic
Activity [26]: Non-Toxic
Activity [27]: Non-Toxic
Activity [28]: Non-Toxic
Activity [29]: Non-Toxic
Activity [30]: Non-Toxic
Activity [31]: Non-Toxic
Activity [32]: Non-Toxic
Activity [33]: Active
Activity [34]: Active
IC50 (PC-3): 89.9 nM
IC50 [35]: 66.9 nM
Ratio IC50 [36]: 0.7
IC50 (DU-145): 169 nM
IC50 [37]: 379 nM
Ratio IC50 [38]: 2.2
inhibition in vivo at 30 mg/kg [39]: 83.8%
Activity [40]: 62.8%
Activity [41]: Non-Toxic

From ChEMBL document CHEMBL4364286, “Structure-Guided Design, Synthesis, and Biological Evaluation of (2-(1H-Indol-3-yl)-1H-imidazol-4-yl)(3,4,5-trimethoxyphenyl) Methanone (ABI-231) Analogues Targeting the Colchicine Binding Site in Tubulin” (J Med Chem, 2019)
